The results in this text go back to ChEMBL document CHEMBL4266011 (ACS Med Chem Lett, 2018).

Some targets named below: Carbonic anhydrase 9 (Homo sapiens, UniProt Q16790); Carbonic anhydrase 4 (Homo sapiens, UniProt P22748); Carbonic anhydrase 13 (Homo sapiens, UniProt Q8N1Q1); Carbonic anhydrase 3 (Homo sapiens, UniProt P07451); Carbonic anhydrase 6 (Homo sapiens, UniProt P23280); Carbonic anhydrase 14 (Homo sapiens, UniProt Q9ULX7); Carbonic anhydrase 12 (Homo sapiens, UniProt O43570); Carbonic anhydrase 7 (Homo sapiens, UniProt P43166).

The target of assay [1] is Carbonic anhydrase 5A, mitochondrial (Homo sapiens, UniProt P35218).
Description: Inhibition of recombinant human CA5a preincubated for 15 mins prior to testing measured for 10 to 100 secs by phenol red based stopped-flow CO2 hydration assay
Assay [2] has as its target Carbonic anhydrase 5B, mitochondrial (Homo sapiens, UniProt Q9Y2D0).
Description: Inhibition of recombinant human CA5b preincubated for 15 mins prior to testing measured for 10 to 100 secs by phenol red based stopped-flow CO2 hydration assay

Chain of Carbonic anhydrase 5A, mitochondrial (P35218 whole entry): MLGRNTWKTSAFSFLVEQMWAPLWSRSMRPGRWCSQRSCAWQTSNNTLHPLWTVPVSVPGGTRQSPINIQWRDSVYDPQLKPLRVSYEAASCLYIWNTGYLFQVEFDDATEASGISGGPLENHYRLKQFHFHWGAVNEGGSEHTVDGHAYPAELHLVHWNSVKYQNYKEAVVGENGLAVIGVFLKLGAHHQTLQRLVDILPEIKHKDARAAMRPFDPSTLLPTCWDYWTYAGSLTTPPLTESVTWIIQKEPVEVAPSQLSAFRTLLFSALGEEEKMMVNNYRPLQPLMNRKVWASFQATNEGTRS
Chain of Carbonic anhydrase 3 (P07451 whole entry): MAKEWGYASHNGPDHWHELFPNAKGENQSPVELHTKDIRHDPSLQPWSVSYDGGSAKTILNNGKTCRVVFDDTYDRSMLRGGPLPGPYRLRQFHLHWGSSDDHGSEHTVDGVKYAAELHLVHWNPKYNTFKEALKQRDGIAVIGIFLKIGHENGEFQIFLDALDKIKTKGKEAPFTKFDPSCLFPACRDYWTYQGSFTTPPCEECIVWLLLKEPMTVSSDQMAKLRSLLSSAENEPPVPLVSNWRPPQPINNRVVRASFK
Chain of Carbonic anhydrase 14 (Q9ULX7 whole entry): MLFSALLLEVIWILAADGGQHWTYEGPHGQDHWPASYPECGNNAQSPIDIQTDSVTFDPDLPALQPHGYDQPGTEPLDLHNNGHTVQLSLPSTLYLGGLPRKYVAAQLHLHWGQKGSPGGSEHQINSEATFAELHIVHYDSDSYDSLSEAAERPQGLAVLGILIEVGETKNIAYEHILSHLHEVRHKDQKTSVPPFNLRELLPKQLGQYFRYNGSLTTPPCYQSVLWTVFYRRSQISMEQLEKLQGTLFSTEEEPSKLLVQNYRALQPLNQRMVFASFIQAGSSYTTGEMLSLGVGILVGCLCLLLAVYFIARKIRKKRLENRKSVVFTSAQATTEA
Chain of Carbonic anhydrase 5B, mitochondrial (Q9Y2D0 whole entry): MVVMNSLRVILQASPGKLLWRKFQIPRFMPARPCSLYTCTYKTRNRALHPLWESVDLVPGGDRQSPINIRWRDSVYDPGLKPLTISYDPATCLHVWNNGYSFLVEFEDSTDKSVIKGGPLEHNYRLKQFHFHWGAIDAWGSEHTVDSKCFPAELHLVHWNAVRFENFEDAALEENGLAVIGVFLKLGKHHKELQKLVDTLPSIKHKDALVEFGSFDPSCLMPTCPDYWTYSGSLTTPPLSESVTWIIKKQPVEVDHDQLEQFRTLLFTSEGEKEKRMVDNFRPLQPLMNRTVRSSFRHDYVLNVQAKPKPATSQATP
Chain of Carbonic anhydrase 13 (Q8N1Q1 whole entry): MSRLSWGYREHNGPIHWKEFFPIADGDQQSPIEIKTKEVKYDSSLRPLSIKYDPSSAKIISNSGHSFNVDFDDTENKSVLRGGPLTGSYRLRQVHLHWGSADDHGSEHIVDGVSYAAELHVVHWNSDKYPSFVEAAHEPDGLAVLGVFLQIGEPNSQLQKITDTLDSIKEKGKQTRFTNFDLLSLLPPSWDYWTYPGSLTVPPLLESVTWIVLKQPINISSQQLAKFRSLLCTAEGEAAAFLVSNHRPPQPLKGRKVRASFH
Chain of Carbonic anhydrase 4 (P22748 whole entry): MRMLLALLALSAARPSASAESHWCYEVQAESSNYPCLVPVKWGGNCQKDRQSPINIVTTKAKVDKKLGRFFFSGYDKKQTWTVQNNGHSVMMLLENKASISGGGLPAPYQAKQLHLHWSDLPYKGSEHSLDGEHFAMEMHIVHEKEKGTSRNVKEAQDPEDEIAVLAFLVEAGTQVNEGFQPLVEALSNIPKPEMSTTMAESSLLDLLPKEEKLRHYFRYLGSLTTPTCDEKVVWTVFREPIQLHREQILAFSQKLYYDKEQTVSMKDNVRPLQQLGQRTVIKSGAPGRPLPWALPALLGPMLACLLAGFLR
Chain of Carbonic anhydrase 12 (O43570 whole entry): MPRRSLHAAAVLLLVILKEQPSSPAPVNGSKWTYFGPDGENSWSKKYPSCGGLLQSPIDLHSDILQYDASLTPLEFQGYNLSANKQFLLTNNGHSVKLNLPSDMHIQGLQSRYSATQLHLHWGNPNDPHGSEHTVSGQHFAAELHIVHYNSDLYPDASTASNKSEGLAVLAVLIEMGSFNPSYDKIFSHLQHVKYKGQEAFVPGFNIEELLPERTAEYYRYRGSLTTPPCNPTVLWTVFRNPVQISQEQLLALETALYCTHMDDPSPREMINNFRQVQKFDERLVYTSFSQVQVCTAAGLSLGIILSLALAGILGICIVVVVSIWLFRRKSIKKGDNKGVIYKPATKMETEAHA
Chain of Carbonic anhydrase 6 (P23280 whole entry): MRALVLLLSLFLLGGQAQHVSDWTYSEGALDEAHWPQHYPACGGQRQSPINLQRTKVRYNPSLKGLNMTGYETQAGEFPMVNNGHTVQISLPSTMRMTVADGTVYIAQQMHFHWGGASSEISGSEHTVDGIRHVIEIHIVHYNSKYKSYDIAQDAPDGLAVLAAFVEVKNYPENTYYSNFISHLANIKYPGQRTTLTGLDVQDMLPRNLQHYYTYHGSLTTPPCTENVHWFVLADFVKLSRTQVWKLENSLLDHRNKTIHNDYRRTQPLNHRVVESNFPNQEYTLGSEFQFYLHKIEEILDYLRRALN
Chain of Carbonic anhydrase 7 (P43166 whole entry): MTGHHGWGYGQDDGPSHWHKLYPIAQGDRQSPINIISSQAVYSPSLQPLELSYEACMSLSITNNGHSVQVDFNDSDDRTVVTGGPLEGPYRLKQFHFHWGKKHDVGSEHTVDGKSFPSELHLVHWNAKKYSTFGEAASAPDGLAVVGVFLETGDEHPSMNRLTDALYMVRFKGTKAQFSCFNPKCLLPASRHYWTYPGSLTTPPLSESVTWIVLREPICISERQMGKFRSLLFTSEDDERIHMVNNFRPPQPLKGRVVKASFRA
Description for Carbonic anhydrase 12: Inhibition of recombinant human CA12 preincubated for 15 mins prior to testing measured for 10 to 100 secs by phenol red based stopped-flow CO2 hydration assay
Description for Carbonic anhydrase 13: Inhibition of recombinant human CA13 preincubated for 15 mins prior to testing measured for 10 to 100 secs by phenol red based stopped-flow CO2 hydration assay
Description for Carbonic anhydrase 14: Inhibition of recombinant human CA14 preincubated for 15 mins prior to testing measured for 10 to 100 secs by phenol red based stopped-flow CO2 hydration assay
Description for Carbonic anhydrase 3: Inhibition of recombinant human CA3 preincubated for 15 mins prior to testing measured for 10 to 100 secs by phenol red based stopped-flow CO2 hydration assay
Description for Carbonic anhydrase 4: Inhibition of recombinant human CA4 preincubated for 15 mins prior to testing measured for 10 to 100 secs by phenol red based stopped-flow CO2 hydration assay
Description for Carbonic anhydrase 6: Inhibition of recombinant human CA6 preincubated for 15 mins prior to testing measured for 10 to 100 secs by phenol red based stopped-flow CO2 hydration assay
Description for Carbonic anhydrase 7: Inhibition of recombinant human CA7 preincubated for 15 mins prior to testing measured for 10 to 100 secs by phenol red based stopped-flow CO2 hydration assay

Turning to `NC(N)=Nc1nc(CSCCC(N)=NS(N)(=O)=O)cs1` [FAMOTIDINE], the Ki (in general, the equilibrium dissociation constant of an inhibitor or competing ligand from its target) on Carbonic anhydrase 9 was 126 nM; on Carbonic anhydrase 4, 939 nM; on Carbonic anhydrase 13 it was 172 nM; at Carbonic anhydrase 3, above 10000 nM; at Carbonic anhydrase 6, 98.2 nM; in [1], 1430 nM. Further, the Ki on Carbonic anhydrase 14 turned out to be 677 nM; in assay [2], 5330 nM; on Carbonic anhydrase 12 it was 45.3 nM; on Carbonic anhydrase 7, 3 nM.
